Where two headings read alike, the source gives them in different places.
Assays:
[1] = C. majus material; cited from earlier work
[2] = molecular target: T1, electric eel acetylcholinesterase (eeAChE) (Electrophorus electricus, UniProt O42275); experiment: Cholinesterase inhibition assay (Ellman method), eeAChE; type: biochemical; conditions: for Ki: inhibition constant, Dixon plot, substrate 0.125, 0.25, 0.5 mM
T1 construct: purchased Sigma-Aldrich
Method: (§1) Cholinesterase activities were measured by the Ellman method[58] adapted for 96-well microtiter plates, as previously described.[59] The compounds were first screened for the IC50 determination, and for those with IC50 < 200 μM, the inhibitory constants (Ki) were determined. Stock solutions of the tested compounds (5 mg/mL) and of the positive control (1 mg/mL neostigmine bromide, Sigma-Aldrich, St. Louis, MO, USA) were prepared in 100% MeOH. These solutions were added to the wells and gradually diluted in 100 mM potassium phosphate buffer (pH 7.4) to the final volume of 50 μL. Acetylthiocholine chloride and 5,5′-dithiobis-2-nitrobenzoic acid were then dissolved in the same buffer to the respective final concentrations of 1 and 0.5 mM and added (100 μL) to the wells of the microtiter plates. eeAChE, hrAChE, or hsBChE (all Sigma-Aldrich) were dissolved in the same buffer to 0.0075 U/mL. A 50 μL amount of each of the cholinesterases was added to start the reactions, which were followed spectrophotometrically at 405 nm and 25 °C for 5 min using a kinetic microplate reader (Dynex Technologies Inc., Chantilly, VA, USA). Blank reactions without the inhibitors were run in the presence of the appropriate dilution of MeOH in 100 mM potassium phosphate buffer (pH 7.4). The concentrations of the compounds inducing 50% inhibition of enzyme activity (IC50) were determined and expressed as mean values ± SEM. To determine the inhibition constants (Ki), the kinetics were monitored using three different final substrate concentrations (0.125, 0.25, 0.5 mM). Each measurement was repeated at least three times. Data were analyzed using OriginPro software (OriginPro 2020, OriginLab Corporation, Northampton, MA, USA).

[3] = molecular target: T2, human recombinant acetylcholinesterase (hrAChE) (Homo sapiens, UniProt P22303); experiment: Cholinesterase inhibition assay (Ellman method), hrAChE; type: biochemical; conditions: for Ki: inhibition constant, Dixon plot, substrate 0.125, 0.25, 0.5 mM
T2 construct: purchased Sigma-Aldrich
T2 sequence (P22303 32-614): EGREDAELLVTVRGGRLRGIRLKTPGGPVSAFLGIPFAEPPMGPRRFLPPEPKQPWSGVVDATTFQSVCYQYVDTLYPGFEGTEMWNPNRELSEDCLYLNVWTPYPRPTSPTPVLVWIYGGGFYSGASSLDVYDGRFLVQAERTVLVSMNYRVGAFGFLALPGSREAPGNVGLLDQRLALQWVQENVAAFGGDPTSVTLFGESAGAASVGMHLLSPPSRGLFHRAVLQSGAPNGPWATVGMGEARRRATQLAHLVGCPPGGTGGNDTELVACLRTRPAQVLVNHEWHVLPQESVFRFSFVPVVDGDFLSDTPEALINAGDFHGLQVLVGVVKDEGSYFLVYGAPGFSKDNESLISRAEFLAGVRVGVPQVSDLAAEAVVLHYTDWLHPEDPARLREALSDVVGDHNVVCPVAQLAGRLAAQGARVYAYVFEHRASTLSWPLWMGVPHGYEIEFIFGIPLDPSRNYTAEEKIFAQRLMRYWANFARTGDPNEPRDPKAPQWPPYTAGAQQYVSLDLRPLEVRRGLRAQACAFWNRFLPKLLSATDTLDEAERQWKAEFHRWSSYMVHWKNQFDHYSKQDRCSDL
Method: as §1

[4] = molecular target: T3, horse serum butyrylcholinesterase (hsBChE) (Equus caballus, UniProt P81908); experiment: biochemical; type: biochemical; conditions: for Ki: inhibition constant, Dixon plot, substrate 0.125, 0.25, 0.5 mM; for IC50: means ± SEM of three independent measurements; for selectivity for BChE: hsBChE versus AChEs
T3 construct: purchased Sigma-Aldrich; host or cells: horse serum
T3 sequence (P81908 whole entry): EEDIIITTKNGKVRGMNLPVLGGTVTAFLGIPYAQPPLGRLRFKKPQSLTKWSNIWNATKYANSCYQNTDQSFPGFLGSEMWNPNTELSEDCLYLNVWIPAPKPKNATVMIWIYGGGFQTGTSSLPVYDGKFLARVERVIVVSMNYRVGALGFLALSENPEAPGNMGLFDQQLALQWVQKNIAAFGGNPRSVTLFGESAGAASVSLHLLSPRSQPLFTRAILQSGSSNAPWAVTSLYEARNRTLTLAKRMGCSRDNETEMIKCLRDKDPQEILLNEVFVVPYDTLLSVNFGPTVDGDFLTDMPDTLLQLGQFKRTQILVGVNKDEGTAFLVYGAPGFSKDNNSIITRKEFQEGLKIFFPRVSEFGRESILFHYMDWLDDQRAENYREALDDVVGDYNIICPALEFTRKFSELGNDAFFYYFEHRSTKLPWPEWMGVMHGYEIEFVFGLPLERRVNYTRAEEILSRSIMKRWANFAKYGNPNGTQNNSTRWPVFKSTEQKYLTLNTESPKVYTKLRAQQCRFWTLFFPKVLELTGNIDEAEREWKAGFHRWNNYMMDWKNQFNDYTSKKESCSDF
Method: as §1

[5] = Storage stability of isolated compounds (oxidation); type: physicochemical
Method: These findings are of interest as they contrast with observations from the present work. In this study, no special precautions were taken in the isolation of 1 and 2, although the laboratory studies were conducted relatively quickly: only 9 days elapsed from the collection of fresh plants to the acquisition of NMR data (see Supporting Information, Figure S31 for a detailed isolation timeline). […] Comparison of the present methodology with the approaches used by Tsai and Lee[25] and Paulsen et al.[26] has led to the hypothesis that the use of a strong acid (0.1% TFA, pH ∼2.0) during HPLC may be an important component of compound stability. In the present investigation, 0.1% TFA was used in both solvents during HPLC purification, and the same was done by Tsai and Lee. Conversely, Paulsen et al. opted for a three-solvent system of 10 mM (NH4)2SO3, 0.2% triethylamine adjusted with acetic acid to pH 4.0 (solvent A), CH3CN (solvent B), and MeOH (solvent C). Their observation that 13,14-dihydrocoptisine oxidized repeatedly after HPLC leads to the present conclusion that these conditions may have been insufficiently acidic to stabilize the compound. However, this was not tested in the current work. Further, given the varied substitution of the aromatic motifs in these compounds, the role these groups play upon stability cannot be yet ascertained. […]

[6] = Protoberberine oxidation analysis in P. setiferum capsules (oven 40 °C vs freezer -20 °C, LC-MS); type: physicochemical, Papaver setiferum; conditions: 2 weeks
Method: The alkaloid analysis was based on De Vos et al. (2007).[57]P. setiferum material was collected at four time points: (1) approximately 3 days before flowering, (2) during flowering, (3) approximately 2 weeks after flowering, and (4) approximately 4 weeks after flowering (by which point the flowers had dried and turned brown). At each collection time, a sample of the aerial parts (three separate stems, each with several leaves and a capsule) was collected and stored at −20 °C. The samples were later separated into capsules, leaves, and stems and ground into a powder using a mortar and pestle. One hundred milligrams (±5 mg) of each was transferred into an Eppendorf tube, and each weight was recorded. Cold MeOH (0.1% FA) was added to each in a 1:10 w/v ratio, and the tubes were sonicated for 30 min. The samples were centrifuged for 5 min at 13 000 rpm, and the supernatant was filtered (0.2 μm). A pooled sample was prepared by taking 20 μL from each sample and combining into a single vial. All samples were diluted 1:10 in Milli-Q water prior to LC-MS analysis. The samples were randomly ordered for LC-MS, with the pooled sample run interspaced after every fourth sample. An injection volume of 2 μL was used for each sample. The solvents used were 5% CH3CN (0.1% FA) (solvent A) and 95% CH3CN (0.1% FA) (solvent B). The column used was a Phenomenex Kinetex XB-C18 (2.6 μm, 100 Å, 3.0 × 100 mm) with a linear solvent gradient from 15% to 50% solvent B over 20 min. Alkaloids were identified by comparison of retention times with authentic standards.
From three P. setiferum capsules [taken from time point (1) in the time series analysis], two lots of 100 ± 5 mg of material were weighed into Eppendorf tubes. One set of samples was stored with the lids open in the oven at 40 °C, while the others were stored in the freezer at −20 °C. After 2 weeks, the samples were analyzed by LC-MS, as described above.

[7] = AChEs (eeAChE and hrAChE), compared to 2
[8] = means ± SEM of three independent measurements, read-out: eeAChE IC50
[9] = means ± SEM of three independent measurements, read-out: hrAChE IC50

T1 sequence (O42275 24-633): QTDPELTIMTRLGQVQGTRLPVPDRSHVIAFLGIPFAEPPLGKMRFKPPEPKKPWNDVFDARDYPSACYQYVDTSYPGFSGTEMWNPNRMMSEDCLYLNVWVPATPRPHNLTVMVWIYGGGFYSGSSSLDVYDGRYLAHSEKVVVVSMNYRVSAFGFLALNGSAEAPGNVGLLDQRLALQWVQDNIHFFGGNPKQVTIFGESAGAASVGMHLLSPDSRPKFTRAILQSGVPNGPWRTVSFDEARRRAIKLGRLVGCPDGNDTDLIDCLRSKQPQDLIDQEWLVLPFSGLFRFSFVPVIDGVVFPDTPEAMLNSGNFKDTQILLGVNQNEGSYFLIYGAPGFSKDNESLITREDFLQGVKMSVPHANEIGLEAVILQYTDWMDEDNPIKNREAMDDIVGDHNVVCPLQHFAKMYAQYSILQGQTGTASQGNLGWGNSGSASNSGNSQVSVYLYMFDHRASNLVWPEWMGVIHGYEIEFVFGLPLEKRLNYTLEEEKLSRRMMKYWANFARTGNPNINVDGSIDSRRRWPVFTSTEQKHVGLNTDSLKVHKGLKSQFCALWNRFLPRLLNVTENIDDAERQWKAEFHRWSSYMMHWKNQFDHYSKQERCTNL

C1=[N+]2CCc3cc4c(cc3C2Cc2ccc3c(c21)OCO3)OCO4 (stereo not shown) [13,14-dihydrocoptisine]
oxidation after oven-drying of plant material [1]: complete oxidation

COc1cc2c(c(CO)c1OC)C[C@H]1c3c(cc4c(c3OC)OCO4)CC[N+]1=C2.O=C([O-])C(F)(F)F [Compound 1, 7,8-Didehydromecambridine TFA salt]
lower activity against AChEs when compared to 2 [2, 7]: approximately 3 fold | lower inhibition constants when compared to 2 [2, 7]: ~6 fold | Ki [2]: 7 µM | IC50 [2, 8]: 10.3 ± 1.1 µM | Ki [3]: 31 µM | IC50 [3, 9]: 66.6 ± 2.4 µM | Ki [4]: 58.5 µM | IC50 [4]: 100 ± 5 µM | oxidation of dried sample on storage ([5]; TFA salt, 0.7 mg, uncapped glass vial, room temperature, approximately 8 weeks): no oxidation to 3 | change of concentration in oven-dried capsules versus capsules stored at -20 °C [6]: minor decrease in concentration

COc1cc2c(c3c1OCOC3)C[C@H]1c3c(cc4c(c3OC)OCO4)CC[N+]1=C2.O=C([O-])C(F)(F)F [Compound 2, 7,8-Didehydroorientalidine TFA salt]
Ki [2]: 1 µM | IC50 [2, 8]: 3.4 ± 4.7 µM | Ki [3]: 6.3 µM | IC50 [3, 9]: 18.9 ± 1.8 µM | Ki [4]: 47 µM | IC50 [4]: 98.5 ± 0.6 µM | change of concentration in oven-dried capsules versus capsules stored at -20 °C [6]: minor decrease in concentration

COc1cc2c[n+]3c(cc2c(CO)c1OC)-c1c(cc2c(c1OC)OCO2)CC3 [Compound 3, alborine]
Ki [2]: 3.6 µM | IC50 [2, 8]: 6.8 ± 4.5 µM | Ki [3]: 13.2 µM | IC50 [3, 9]: 20 ± 0.9 µM | Ki [4]: 43.7 µM | IC50 [4]: 63.1 ± 0.5 µM | change of concentration in oven-dried capsules versus capsules stored at -20 °C [6]: approximately doubling

COc1cc2c(c3c1OCOC3)C[C@H]1c3c(cc4c(c3OC)OCO4)CCN1C2 [Compound 4, orientalidine]
Ki [2]: 2 µM | IC50 [2, 8]: 5 ± 1 µM | Ki [3]: 13.7 µM | IC50 [3, 9]: 19.9 ± 1.1 µM | Ki [4]: 35.5 µM | IC50 [4]: 104 ± 4 µM | oxidation on standing in an NMR tube ([5]; 1:1 mixture of 4 and 5 (fraction C.12), four months): complete oxidation of 4 to 5

COc1cc2c[n+]3c(cc2c2c1OCOC2)-c1c(cc2c(c1OC)OCO2)CC3 [Compound 5, 7,8,13,14-dehydroorientalidine]
change of concentration in oven-dried capsules versus capsules stored at -20 °C [6]: below the level of detection

COc1cc2c3c(c1O)-c1c(cccc1OC)C[C@@H]3N(C)CC2 [Compound 6, isothebaine]
Ki [2]: 68 µM | IC50 [2, 8]: 260 ± 1 µM | IC50 [3]: > 342 µM | selectivity for BChE [4]: good selectivity for BChE | Ki [4]: 0.6 µM | IC50 [4]: 2.8 ± 3 µM

COc1cc2c3c(c1O)-c1c(cccc1OC)C[C@@H]3[N+](C)(C)CC2 [Compound 7, N-methylisothebainium]
IC50 [2, 8]: > 342 µM | IC50 [3, 9]: > 342 µM | selectivity for BChE [4]: good selectivity for BChE | Ki [4]: 2.2 µM | IC50 [4]: 7.1 ± 2.7 µM

COc1cc(C[C@H]2c3cc(O)c(OC)cc3CC[N+]2(C)C)ccc1O [Compound 8, N-methylorientaline]
IC50 [2, 8]: > 342 µM | IC50 [3, 9]: > 342 µM | IC50 [4]: 342 ± 3 µM

COc1cc2c(cc1O)[C@H](Cc1ccc(OC)c(OC)c1)[N+](C)(C)CC2 [Compound 9, N-methylcodamine]
IC50 [2, 8]: > 342 µM | IC50 [3, 9]: > 342 µM | IC50 [4]: 221 ± 1 µM

COC1=C[C@]23CCN(C)[C@H](Cc4ccc(OC)c(O)c42)C3=CC1=O [Compound 10, salutaridine]
IC50 [2]: > 342 µM | IC50 [3]: > 342 µM

O=[N+]([O-])CCc1ccc(O[C@@H]2O[C@H](CO[C@@H]3OC[C@@H](O)[C@H](O)[C@H]3O)[C@@H](O)[C@H](O)[C@H]2O)cc1 [Compound 11, thalictricoside]
IC50 [2, 8]: > 342 µM | IC50 [3, 9]: > 342 µM | IC50 [4]: > 342 µM

— PMC8805119, “Spatial Distribution and Stability of Cholinesterase Inhibitory Protoberberine Alkaloids from Papaver setiferum” (Journal of Natural Products, 2021)
